Reference: patent US20230257429A1, “PEPTIDE ADJUVANT FOR ITS THERAPEUTIC APPLICATIONS IN VIRAL AND TUMOUR VACCINE DEVELOPMENT AND CANCER IMMUNOTHERAPY AND AUTOIMMUNE DISEASE DIAGNOSIS AND TREATMENTS” (National University of Singapore, priority 2020, published 2023)
Entries after “also recorded” stand apart in the source; their conditions may differ.

How the values were obtained:
Format in all cases: cell-based, human
[1] = test system: autologous CD4 and CD8 T cells; assay: Antigen-loaded DC co-culture with autologous lymphocytes, proliferation; conditions: DC:T 1:5, 2 weeks co-culture, CellTrace Violet
Experimental: PBMC were isolated from healthy blood donors from which monocytes were isolated to culture DC and the remaining cells (mostly lymphocytes) were stored frozen as a source of autologous lymphocytes. DC were then incubated for 24 hr with P2+G, IPA1E2 or the IPA1E2-P2+G fusion polypeptide (SEQ ID NO: 58) in round bottom 96-well plates (5×10^4 cells/well) without adding additional adjuvants. The frozen lymphocytes were revived and labelled with CellTrace Violet (2.5 μM) for 10 min at 37° C. and then added to the DC wells at 2.5×10^5 cells/well (DC:T ratio=1:5). After 2 weeks of co-culture, the proliferation of CD4+ and CD8+ T cell and CD19+ B cell was analyzed by flow cytometry.

dendritic cells (DC) [2] = assay: Dendritic cell penetration, confocal microscopy
Experimental: DC were harvested and cultured overnight on glass coverslips. The cells were first incubated for 1, 5, 15, 30 or 60 min with P2M6 (200 μg/ml) at 4° C. and then fixed in 4% (w/v) paraformaldehyde (PFA) for 20 min. Cells were permeabilized for 30 min in 0.1% (w/v) saponin and then incubated for 1 hr with streptavidin-AF488 (50 μg/ml). Cells were then mounted for imaging analysis. Alternatively, P2M6 was pre-incubated for 1 hr on ice with streptavidin-AF488 at 50 μg/ml and the peptide-streptavidin complexes were at 1/10 dilution incubated with DC for 1, 5, 15, 30 or 60 min at 4° C. and the cells were, after washing, directly mounted without fixation or permeabilization.
In another experiment set up, DC (2×10^5/ml) were incubated for 1 hr at 4° C. with P2M6 at different concentrations (10, 25, 50, 100, or 200 μg/ml). Cells were fixed and permeabilized to incubate for 1 hr with streptavidin-AF488 (50 μg/ml). Cells were washed and mounted for imaging analysis. Alternatively, Different concentrations of P2M6 ([…]) were pre-incubated for 1 hr on ice with streptavidin-AF488 (500 μg/ml). The preformed complexes were at 1/10 dilutions incubated with DC for 1 hr at 4° C. The cells were, after washing, directly mounted without fixation or permeabilization.
All cells were mounted using the VectaShield mounting medium containing DAPI (Vector Laboratories). Cells were analyzed using the FluoView FV3000 confocal microscope equipped with a 100× oil objective (aperture 1.45) and Cool/SNAP HQ2 image acquisition camera (Olympus). Images were captured with the FV-ASW 1.6b software and analyzed using the Imaris software (Bitplane AG).

dendritic cells (DC) [3] = assay: Dendritic cell penetration, confocal microscopy; conditions: data not shown
PBMC [4] = assay: Peptide binding to and penetration of PBMC, flow cytometry; conditions: PBMC, peptide 200 μg/ml, 1 hr at 4° C.
Outline: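 PBMC (3×10^6/ml, serum-free macrophage medium) incubated 1 h with biotinylated-detected peptides at 200 μg/ml, at 37 °C or 4 °C. Streptavidin-AF488 flow cytometry with viability dye, with or without permeabilization to separate surface binding from internalization; monocytes, T and B cells gated separately.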

dendritic cells (DC) [5] = assay: DC maturation, surface markers by flow cytometry; conditions: 200 μg/ml, 48 hr
Experimental: In some experiments, to detect surface proteins on cultured DC, cells were harvested at day 6 and re-suspended at 1×10^5/ml in macrophage serum free medium (Thermo Fisher Scientific, cat #12065074). Cells were incubated for 1 hr on ice with fluorescent antibodies specific for CD14 (PE), CD1a (PE), or isotype-matched IgG. Cells were washed and analysed by flow cytometry. The harvested DC were also resuspended in the medium at 5×10^4/ml and cultured for 48 hr with LPS (0.5 μg/ml), P2M6 (200 μg/ml) or, as a control, PBS. Cells were then incubated with fluorescently tagged antibodies specific for MHC class II, CD40, CD80, CD83, CD86, and corresponding isotype controls. Cells were analysed by flow cytometry.
NCL-P2 was previously shown to activate DC as judged by TNFα induction [Wu, S., et al., Cell Death Dis 12: 477 (2021)]. Whether P2+G effectively activates these cells into mature antigen-presenting cells (APC) for effective T cell activation has not been examined. To this end, DC were stimulated for 48 hr with P2+G (200 μg/ml) or, as a positive control, LPS (0.5 μg/ml). As a negative control, DC were cultured without specific stimulation by adding equivalent volumes of PBS. DC were cultured from monocytes and were typically CD14^lo/− CD1a^hi [Cao, W., et al., Blood 107: 2777-2785 (2006)]. Cells were examined for surface expression of MHC class II, CD40, CD80, CD83 and CD86.

PBMC [6] = assay: PBMC activation, TNFα and IL-1β ELISA; conditions: PBMC stimulated 24 hr, TNFα in media
Experimental: Buffy coat fractions were obtained from healthy blood donors at the Singapore Health Sciences Authority, with Institutional ethics approval, and PBMC were isolated using Ficoll-Paque (GE Healthcare). To isolate monocytes, PBMC were re-suspended to 1×10^7 cells/ml in the RPMI medium contained 5% (v/v) BCS and incubated for 1 hr in T75 flasks (20 ml/flask). Monocytes that adhered were harvested. To culture macrophages and DC [Cao, W., et al., Blood 107: 2777-2785, (2006), incorporated herein by reference], monocytes were resuspended to 1×10^6 cells/ml and cultured in 6-well plates (2 ml/well). Macrophages were cultured by adding M-CSF to 20 ng/ml and DC were cultured with 20 ng/ml GM-CSF and 40 ng/ml IL-4. M-CSF, GM-CSF and IL-4 were obtained from R&D Systems (Mineapolis, Minn.). Cells were cultured for 6 days with half of the media being replenished every two days.
Purified proteins in PBS (30 μg/ml) were coated in triplicates in 96-well plates (50 μl/well) for 12 hr and PBMC (3×10^6 cells/ml), monocytes (1×10^6 cells/ml), macrophages (0.5×10^6 cells/ml) or DC (0.5×10^6 cells/ml) were re-suspended in macrophage serum-free medium containing penicillin and streptomycin and cultured for 24 hr in these plates at 100 μl/well. Where TLR ligands were used to stimulate these cells, they were added to the media: LPS (500 ng/ml for DC and macrophages and 10 ng/ml for PMBC and monocytes, InvivoGen), flagellin (1 μg/ml, InvivoGen), lipoteichic acid (LTA, 10 μg/ml). Cell activation was determined by measuring TNFα and IL-1β in the culture media using ELISA kits (Invitrogen).

GGFGGRGGGRGGRGGFGGRGGRGGFGGRGGFRGGRGG (NCL-P2+G)
T cell proliferation / activation induced by peptide-loaded DC [1]: might not induce significant T cell activation to itself
carrying cargo protein streptavidin into DC cytoplasm (dendritic cells (DC) [2]): can carry cargo proteins across the cell membrane into the cytoplasm; also recorded: carry a cargo protein streptavidin into the DC cytoplasm
time of incubation within which DC were penetrated (dendritic cells (DC) [2]; 200 μg/ml, 4° C.): ≤ 1 min
DC penetration over time (dendritic cells (DC) [2]; 1, 5, 15, 30 and 60 min, 4° C.): increased progressively from 5 to 60 min
DC penetration at 10 μg/ml of P2+G (dendritic cells (DC) [2]; 1 hr at 4° C.): not detectable; also recorded: no detectable DC penetration
DC penetration at 25 μg/ml of P2+G (dendritic cells (DC) [2]; 1 hr at 4° C.): low level of DC penetration
time to saturation of DC penetration (dendritic cells (DC) [2]; P2+G 200 μg/ml, on ice): 30 min
intracellular localisation in DC (dendritic cells (DC) [2]; confocal microscopy): penetrated into the nucleoli faster than it penetrated into the cytoplasm
change of intracellular pool in DC with increasing P2+G concentration (dendritic cells (DC) [2]; free peptide 25 to 200 μg/ml, streptavidin-bound 10 to 100 μg/ml): increased following increasing concentrations
carrying ovalbumin into DC cytoplasm (dendritic cells (DC) [3]): carried ovalbumin into DC cytoplasm
CPP activity compared with NCL-P2 (PBMC [4]): slightly higher CPP activity
CPP activity compared with NCL-P2 (PBMC [4]; listed as P2+G): slightly increased their CPP activities
DC maturation (MHC class II, CD40, CD80, CD83, CD86) (dendritic cells (DC) [5]): effectively activated DC maturation
adjuvant (alarmin) activity compared with NCL-P2 (PBMC [6]): significantly higher alarmin activity
increase in adjuvant (alarmin) activity compared with NCL-P2 (PBMC [6]): 3 fold
